Measured values reported in patent publication US20230093861A1, “RAPAMYCIN ANALOGS AS MTOR INHIBITORS” (Revolution Medicines, Inc., priority 2017, published 2023).
Where two headings read alike, the source gives them in different places.

How the values were obtained:
[1] = test system: P-4E-BP1 (T37/46); assay: Cell based AlphaLISA assay, inhibition of P-4E-BP1 (T37/46) (mTORC1 substrate phosphorylation) in MDA-MB-468 cells; settings: Homo sapiens, AlphaLISA, two to four hours at 37° C., read-out: pIC50 for Inhibition of mTORC1 and mTORC2 Substrate Phosphorylation, P-4E-BP1-(T37/46) (converted)
In short: (§1)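 IC50s come from control-normalized curve fits of duplicate Alpha signals. Cell lysates were probed with SureFire Ultra kits for mTORC1 substrates 4E-BP1 T37/46 and P70S6K T389 and mTORC2 substrate Akt S473 in MDA-MB-468 cells exposed to inhibitor.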

[2] = test system: P-P70S6K (T389); assay: Cell based AlphaLISA assay, inhibition of P-P70S6K (T389) (mTORC1 substrate phosphorylation) in MDA-MB-468 cells; settings: Homo sapiens, 4 h, AlphaLISA, two to four hours at 37° C., read-out: pIC50 for Inhibition of mTORC1 and mTORC2 Substrate Phosphorylation, P-P70S6K-(T389) (converted)
In short: as §1

[3] = test system: P-Akt (S473); assay: Cell based AlphaLISA assay, inhibition of P-Akt (S473) (mTORC2 substrate phosphorylation) in MDA-MB-468 cells; settings: Homo sapiens, AlphaLISA, two to four hours at 37° C., read-out: pIC50 for Inhibition of mTORC1 and mTORC2 Substrate Phosphorylation, p-AKT 1/2/3 -(S473) (converted)
In short: as §1

Structure (SMILES)	IC50 ([1]; MDA-MB-468, 4 h)	IC50 [2]	IC50 ([3]; MDA-MB-468, 4 h)	IC50 ([1]; 4 h)	IC50 ([3]; 4 h)
COc1ccc(-c2ccc3ncc4c(c3c2)n(-c2ccc(N3CCN(C(=O)CCOCCOCCOCCOCCOCCOCCOCCOCCn5cc(CCCCO[C@@H]6CC[C@@H](C[C@@H](C)[C@@H]7CC(=O)[C@H](C)/C=C(\C)[C@@H](O)[C@@H](OC)C(=O)[C@H](C)C[C@H](C)/C=C/C=C/C=C(\C)[C@@H](OC)C[C@@H]8CC[C@@H](C)[C@@](O)(O8)C(=O)C(=O)N8CCCC[C@H]8C(=O)O7)C[C@H]6OC)nn5)CC3)c(C(F)(F)F)c2)c(=O)n4C)cn1 [Example 11]	< 3.16 nM	< 1 nM	< 3.16 nM		
CO[C@H]1C[C@@H]2CC[C@@H](C)[C@@](O)(O2)C(=O)C(=O)N2CCCC[C@H]2C(=O)O[C@H]([C@H](C)C[C@@H]2CC[C@H](n3cc(COC(=O)NCCOCCOCCC(=O)NCc4cnc(N5CCN(c6ncc(C(=O)NCCCCn7nc(-c8ccc9oc(N)nc9c8)c8c(N)ncnc87)cn6)CC5)nc4)nn3)[C@H](OC)C2)CC(=O)[C@H](C)/C=C(\C)[C@@H](O)[C@@H](OC)C(=O)[C@H](C)C[C@H](C)/C=C/C=C/C=C/1C [Example 181]	< 3.16 nM	< 1 nM	3.16 to 31.6 nM		
COc1cccc2cc(-c3nc([C@H]4CC[C@H](C(=O)NCCOCCOCCNC(=O)CCOCCOCCOCCOCCn5cc(CCCCO[C@@H]6CC[C@@H](C[C@@H](C)[C@@H]7CC(=O)[C@H](C)/C=C(\C)[C@@H](O)[C@@H](OC)C(=O)[C@H](C)C[C@H](C)/C=C/C=C/C=C(\C)[C@@H](OC)C[C@@H]8CC[C@@H](C)[C@@](O)(O8)C(=O)C(=O)N8CCCC[C@H]8C(=O)O7)C[C@H]6OC)nn5)CC4)n4ncnc(N)c34)[nH]c12 [Example 187]	< 3.16 nM	< 1 nM	3.16 to 31.6 nM		
CO[C@H]1C[C@@H]2CC[C@@H](C)[C@@](O)(O2)C(=O)C(=O)N2CCCC[C@H]2C(=O)O[C@H]([C@H](C)C[C@@H]2CC[C@@H](O)[C@H](OC)C2)C[C@@H](OC)[C@H](C)/C=C(\C)[C@@H](O)[C@@H](OC)C(=NOCc2cn(CCOCCOCCOCCOCCOCCC(=O)NCCCCn3nc(-c4ccc5oc(N)nc5c4)c4c(N)ncnc43)nn2)[C@H](C)C[C@H](C)/C=C/C=C/C=C/1C [Example 12]	> 1000 nM	> 1000 nM	> 1000 nM		
CO[C@H]1C[C@@H]2CC[C@@H](C)[C@@](O)(O2)C(=O)C(=O)N2CCCC[C@H]2C(=O)O[C@H]([C@H](C)C[C@@H]2CC[C@@H](OCCCCc3cn(CCOCCOCCOCCOCCOCCOCCOCCOCCOCCOCCOCCOCCOCCOCCOCCOCCOCCOCCOCCOCCOCCOCCOCCOCCC(=O)NCCCCn4nc(-c5ccc6oc(N)nc6c5)c5c(N)ncnc54)nn3)[C@H](OC)C2)CC(=O)[C@H](C)/C=C(\C)[C@@H](O)[C@@H](OC)C(=O)[C@H](C)C[C@H](C)/C=C/C=C/C=C/1C [Example 97]	3.16 to 31.6 nM	1 to 10 nM	3.16 to 31.6 nM		
COc1cccc2cc(-c3nc([C@H]4CC[C@H](C(=O)NCCOCCOCCOCCOCCOCCOCCOCCOCCn5cc(CCCCO[C@@H]6CC[C@@H](C[C@@H](C)[C@@H]7CC(=O)[C@H](C)/C=C(\C)[C@@H](O)[C@@H](OC)C(=O)[C@H](C)C[C@H](C)/C=C/C=C/C=C(\C)[C@@H](OC)C[C@@H]8CC[C@@H](C)[C@@](O)(O8)C(=O)C(=O)N8CCCC[C@H]8C(=O)O7)C[C@H]6OC)nn5)CC4)n4ncnc(N)c34)[nH]c12 [Example 108]	< 3.16 nM	< 1 nM	3.16 to 31.6 nM		
CO/N=C1/C[C@@H]([C@H](C)C[C@@H]2CC[C@H](n3cc(CCCC(=O)NCCOCCOCCOCCC(=O)NCCOCCOCCOCCC(=O)NCCCCn4nc(-c5ccc6oc(N)nc6c5)c5c(N)ncnc54)nn3)[C@H](OC)C2)OC(=O)[C@@H]2CCCCN2C(=O)C(=O)[C@]2(O)O[C@@H](CC[C@H]2C)C[C@H](OC)/C(C)=C/C=C/C=C/[C@@H](C)C[C@@H](C)C(=O)[C@H](OC)[C@H](O)/C(C)=C/[C@H]1C [Example 171]	31.6 to 1000 nM	10 to 1000 nM	> 1000 nM		
CO[C@H]1C[C@@H]2CC[C@@H](C)[C@@](O)(O2)C(=O)C(=O)N2CCCC[C@H]2C(=O)O[C@H]([C@H](C)C[C@@H]2CC[C@H](n3cc(COC(=O)NCCOCCOCCOCCC(=O)NCCOCCOCCC(=O)NCCCCn4nc(-c5ccc6oc(N)nc6c5)c5c(N)ncnc54)nn3)[C@H](OC)C2)C/C(=N/OC(C)(C)C)[C@H](C)/C=C(\C)[C@@H](O)[C@@H](OC)C(=O)[C@H](C)C[C@H](C)/C=C/C=C/C=C/1C [Example 158]	> 1000 nM	> 1000 nM	> 1000 nM		
CO[C@H]1C[C@@H]2CC[C@@H](C)[C@@](O)(O2)C(=O)C(=O)N2CCCC[C@H]2C(=O)O[C@H]([C@H](C)C[C@@H]2CC[C@H](n3cc(COC(=O)NCCOCCOCCC(=O)NCc4cnc(N5CCN(c6ncc(C(=O)NCCCCn7nc(-c8cc9cc(O)ccc9[nH]8)c8c(N)ncnc87)cn6)CC5)nc4)nn3)[C@H](OC)C2)CC(=O)[C@H](C)/C=C(\C)[C@@H](O)[C@@H](OC)C(=O)[C@H](C)C[C@H](C)/C=C/C=C/C=C/1C [Example 182]	> 1000 nM	< 1 nM	> 1000 nM		
COc1ccc(-c2ccc3ncc4c(c3c2)n(-c2ccc(N3CCN(C(=O)CCOCCOCCOCCOCCOCCOCCn5cc(CCCCO[C@@H]6CC[C@@H](C[C@@H](C)[C@@H]7CC(=O)[C@H](C)/C=C(\C)[C@@H](O)[C@@H](OC)C(=O)[C@H](C)C[C@H](C)/C=C/C=C/C=C(\C)[C@@H](OC)C[C@@H]8CC[C@@H](C)[C@@](O)(O8)C(=O)C(=O)N8CCCC[C@H]8C(=O)O7)C[C@H]6OC)nn5)CC3)c(C(F)(F)F)c2)c(=O)n4C)cn1 [Example 44]		< 1 nM		< 3.16 nM	< 3.16 nM
CO[C@H]1C[C@@H]2CC[C@@H](C)[C@@](O)(O2)C(=O)C(=O)N2CCCC[C@H]2C(=O)O[C@H]([C@H](C)C[C@@H]2CC[C@H](n3nncc3-c3cccc(-c4cnc(N5CCN(S(=O)(=O)CCc6cn(CCOCCOCCOCCC(=O)NCCCCn7nc(-c8ccc9oc(N)nc9c8)c8c(N)ncnc87)nn6)CC5)nc4)c3)[C@H](OC)C2)CC(=O)[C@H](C)/C=C(\C)[C@@H](O)[C@@H](OC)C(=O)[C@H](C)C[C@H](C)/C=C/C=C/C=C/1C [Example 35]	< 3.16 nM	< 1 nM	3.16 to 31.6 nM		
CO[C@H]1C[C@@H]2CC[C@@H](C)[C@@](O)(O2)C(=O)C(=O)N2CCCC[C@H]2C(=O)O[C@H]([C@H](C)C[C@@H]2CC[C@@H](OCCCCc3cn(CCOCCOCCOCCOCCOCCOCCC(=O)N4CCC(Cn5nc(-c6ccc7oc(N)nc7c6)c6c(N)ncnc65)C4)nn3)[C@H](OC)C2)CC(=O)[C@H](C)/C=C(\C)[C@@H](O)[C@@H](OC)C(=O)[C@H](C)C[C@H](C)/C=C/C=C/C=C/1C (stereo partly drawn) [Example 8]	< 3.16 nM	< 1 nM	3.16 to 31.6 nM		
CO[C@H]1C[C@@H]2CC[C@@H](C)[C@@](O)(O2)C(=O)C(=O)N2CCCC[C@H]2C(=O)O[C@H]([C@H](C)C[C@@H]2CC[C@H](n3cc(COC(=O)NCCOCCOCCOCCC(=O)NCCOCCOCCOCCC(=O)NCCCCn4nc(-c5cc6cc(O)ccc6[nH]5)c5c(N)ncnc54)nn3)[C@H](OC)C2)C/C(=N/OC(C)(C)C)[C@H](C)/C=C(\C)[C@@H](O)[C@@H](OC)C(=O)[C@H](C)C[C@H](C)/C=C/C=C/C=C/1C [Example 161]	> 1000 nM	> 1000 nM	> 1000 nM		
CO[C@H]1C[C@@H]2CC[C@@H](C)[C@@](O)(O2)C(=O)C(=O)N2CCCC[C@H]2C(=O)O[C@H]([C@H](C)C[C@@H]2CC[C@H](n3cc(COC(=O)NCCOCCOCCOCCC(=O)NCCOCCOCCC(=O)NCCCCn4nc(-c5cc6cc(O)ccc6[nH]5)c5c(N)ncnc54)nn3)[C@H](OC)C2)CC(=O)[C@H](C)/C=C(\C)[C@@H](O)[C@@H](OC)C(=O)[C@H](C)C[C@H](C)/C=C/C=C/C=C/1C [Example 121]	31.6 to 1000 nM	1 to 10 nM	> 1000 nM		
CO[C@H]1C[C@@H]2CC[C@@H](C)[C@@](O)(O2)C(=O)C(=O)N2CCCC[C@H]2C(=O)O[C@H]([C@H](C)C[C@@H]2CC[C@H](n3cc(CCCC(=O)NCCOCCOCCOCCC(=O)NCCOCCOCCC(=O)NCCCCn4nc(-c5ccc6oc(N)nc6c5)c5c(N)ncnc54)nn3)[C@H](OC)C2)CC(=O)[C@H](C)/C=C(\C)[C@@H](O)[C@@H](OC)C(=O)[C@H](C)C[C@H](C)/C=C/C=C/C=C/1C [Example 128]	3.16 to 31.6 nM	1 to 10 nM	31.6 to 1000 nM		
CO[C@H]1C[C@@H]2CC[C@@H](C)[C@@](O)(O2)C(=O)C(=O)N2CCCC[C@H]2C(=O)O[C@H]([C@H](C)C[C@@H]2CC[C@H](n3cc(CCCC(=O)NCCOCCOCCOCCC(=O)NCCOCCOCCC(=O)NCCCCn4nc(-c5ccc6oc(N)nc6c5)c5c(N)ncnc54)nn3)[C@H](OC)C2)C/C(=N/OC(C)(C)C)[C@H](C)/C=C(\C)[C@@H](O)[C@@H](OC)C(=O)[C@H](C)C[C@H](C)/C=C/C=C/C=C/1C [Example 176]	> 1000 nM	10 to 1000 nM	> 1000 nM		
